According to patent US9204653B2, “5-fluoro pyrimidine derivatives” (DOW AGROSCIENCES LLC, priority 2008, dated 2015):
Where two headings read alike, the source gives them in different places.

System: Mycosphaerella graminicola; Anamorph: Septoria tritici; Bayer Code SEPTTR
Test: Leaf blotch of wheat, foliar fungicide treatment, one day protectant (1DP) or three day curative (3DC)
Type: in vivo, Septoria tritici on wheat plants (variety Yuma)
Settings: Zymoseptoria tritici, percent disease control rating
[1] = 24 h, one day protectant (1DP), read-out: SETTTR 1DP 25 ppm
[2] = 24 h, one day protectant (1DP), read-out: SEPTTR 1DP 100 ppm
[3] = 72 h, three day curative (3DC), read-out: SEPTTR 3DC 25 ppm
[4] = 72 h, three day curative (3DC), read-out: SEPTTR 3DC 100 ppm

Row | SMILES | pest or weed control at 25 ppm [1] [%] | pest or weed control at 100 ppm [2] [%] | pest or weed control at 25 ppm [3] [%] | pest or weed control at 100 ppm [4] [%]
1 | COc1cccc(COc2ncc(F)c(NS(N)(=O)=O)n2)c1 [Compound 43, [5-Fluoro-2-(3-methoxybenzyloxy)pyrimidin-4-yl]sulfamide] | 26 to 50 | 51 to 75 | 51 to 75 | 51 to 75
2 | COc1cccc(COc2ncc(F)c(NN)n2)c1 [Compound 44, 5-Fluoro-4-hydrazinyl-2-(3-methoxybenzyloxy)pyrimidine] | 0 to 25 | 76 to 100 | 51 to 75 | 76 to 100
3 | COc1cccc(COc2ncc(F)c(N/N=C/c3cccs3)n2)c1 [Compound 45, (E)-5-Fluoro-2-(3-methoxybenzyloxy)-4-(2-(thiophen-2-ylmethylene)-hydrazinyl)pyrimidine] | 51 to 75 | 76 to 100 | 26 to 50 | 26 to 50
4 | CCCNC(=S)Nc1nc(OCc2ccc(C)cc2)ncc1F [Compound 48] | 76 to 100 | 76 to 100 | 76 to 100 | 76 to 100
5 | CN(Oc1ncc(F)c(N)n1)C(=O)OC(C)(C)C [Compound 50, O-(4-Amino-5-fluoropyrimidin-2-yl)-t-butyl N-methyl-N-hydroxycarbamate] | 26 to 50 | 76 to 100 | 26 to 50 | 76 to 100
6 | CC(=O)Nc1nc(OCc2ccc(F)cc2)ncc1F [Compound 52] | 76 to 100 | 76 to 100 | 51 to 75 | 51 to 75
7 | CC(=S)Nc1nc(OCc2ccc(F)cc2)ncc1F [Compound 53, N-(5-Fluoro-2-(4-fluorobenzyloxy)pyrimidin-4-yl)ethanethioamide] | 76 to 100 | 76 to 100 | 76 to 100 | 76 to 100
8 | COc1cccc(COc2ncc(F)c(NC(=S)NCc3ccccc3F)n2)c1 [Compound 54] | 51 to 75 | 76 to 100 | 0 to 25 | 0 to 25
9 | Cn1ccc(COc2ncc(F)c(N)n2)n1 [Compound 55] | 76 to 100 | 76 to 100 | 76 to 100 | 76 to 100
10 | CC(Oc1ncc(F)c(N)n1)c1ccc2ccccc2c1 (stereo not shown) [Compound 57] | 76 to 100 | 76 to 100 | 76 to 100 | 76 to 100
11 | CN(C)/C=N/c1nc(OC(=O)c2ccccc2F)ncc1F [Compound 58] | 76 to 100 | 76 to 100 | 76 to 100 | 76 to 100
12 | O=C(NCc1ccccc1)Nc1nc(OCc2ccc(F)cc2)ncc1F [Compound 59] | 0 to 25 | 0 to 25 | 0 to 25 | 26 to 50
13 | Nc1nc(OCc2ccc(F)c(C(F)(F)F)c2)ncc1F [Compound 60] | 76 to 100 | 76 to 100 | 76 to 100 | 76 to 100
14 | Cn1ccc(COc2ncc(F)c(NC(=O)NCc3ccccc3F)n2)n1 [Compound 64] | 0 to 25 | 0 to 25 | 0 to 25 | 26 to 50
15 | COc1ccc(/C=N/Nc2nc(OCc3cccc(OC)c3)ncc2F)cc1 [Compound 65] | 26 to 50 | 51 to 75 | 26 to 50 | 51 to 75
16 | CCOc1cccc(COc2ncc(F)c(N)n2)c1 [Compound 66] | 76 to 100 | 76 to 100 | 76 to 100 | 76 to 100
17 | C[C@@H](Oc1ncc(F)c(N)n1)c1ccc(Br)cc1 [Compound 70] | 26 to 50 | 76 to 100 | 26 to 50 | 76 to 100
18 | CCOC(=O)Nc1nc(OCc2ccccc2)ncc1F [Compound 71] | 76 to 100 | 76 to 100 | 76 to 100 | 76 to 100
19 | C/C(=N\Oc1ncc(F)c(N)n1)c1ccc(F)cc1 [Compound 72] | 76 to 100 | 76 to 100 | 76 to 100 | 76 to 100
20 | N#Cc1ccc(COc2ncc(F)c(N)n2)cc1 [Compound 74] | 51 to 75 | 76 to 100 | 0 to 25 | 0 to 25
21 | COc1ccc(COc2ncc(F)c(NC(=S)NCc3ccccc3F)n2)cc1F [Compound 75] | 26 to 50 | 76 to 100 | 76 to 100 | 76 to 100
22 | Cn1c(COc2ncc(F)c(N)n2)cc2sccc21 [Compound 76] | 26 to 50 | 26 to 50 | 26 to 50 | 26 to 50

Row | SMILES | pest or weed control at 25 ppm [1] [%] | pest or weed control at 100 ppm [2] [%] | pest or weed control at 25 ppm [3] [%] | pest or weed control at 100 ppm [4] [%]
23 | COc1cccc(COc2ncc(F)c(NN3CCN(C)CC3)n2)c1 [Compound 77] | 0 to 25 | 76 to 100 | 26 to 50 | 76 to 100
24 | Cc1cccc(COc2ncc(F)c(N)n2)n1 [Compound 78] | 76 to 100 | 76 to 100 | 76 to 100 | 76 to 100
25 | Cn1ccc(COc2ncc(F)c(NC(=O)Nc3ccccc3F)n2)n1 [Compound 81] | 0 to 25 | 0 to 25 | 0 to 25 | 0 to 25
26 | CC(Oc1ncc(F)c(N)n1)c1cccc(Oc2ccccc2)n1 (stereo not shown) [Compound 82] | 26 to 50 | 26 to 50 | 0 to 25 | 26 to 50
27 | CCCC(Oc1ncc(F)c(N)n1)c1ccc(F)cc1 (stereo not shown) [Compound 83] | 76 to 100 | 76 to 100 | 76 to 100 | 76 to 100
28 | COc1cccc(COc2ncc(F)c(NSc3ccccc3[N+](=O)[O-])n2)c1 [Compound 85] | 26 to 50 | 76 to 100 | 76 to 100 | 76 to 100
29 | COc1ccccc1COc1ncc(F)c(NC(=O)Cc2ccccc2)n1 [Compound 86] | 26 to 50 | 51 to 75 | 0 to 25 | 0 to 25
30 | CC(Oc1ncc(F)c(NCO)n1)c1ccc(F)cc1 (stereo not shown) [Compound 88] | 26 to 50 | 76 to 100 | 26 to 50 | 76 to 100
31 | CN(C)/C=N/c1nc(OS(=O)(=O)c2cccs2)ncc1F [Compound 89] | 76 to 100 | 76 to 100 | 76 to 100 | 76 to 100
32 | O=[N+]([O-])c1ccccc1SNc1nc(OCc2cc(Cl)cc(Cl)c2)ncc1F [Compound 90] | 76 to 100 | 76 to 100 | 26 to 50 | 51 to 75
33 | Nc1nc(OCc2cc(F)c(F)c(F)c2)ncc1F [Compound 93] | 76 to 100 | 76 to 100 | 76 to 100 | 76 to 100
34 | CCC(C)C(=O)Oc1ncc(F)c(/N=C/N(C)C)n1 (stereo not shown) [Compound 94] | 76 to 100 | 76 to 100 | 76 to 100 | 76 to 100
35 | CC(C)(C)Oc1ccc(COc2ncc(F)c(N)n2)cc1 [Compound 95] | 76 to 100 | 76 to 100 | 76 to 100 | 76 to 100
36 | CNC(=O)/C(=N/OC)c1ccccc1COc1ncc(F)c(N)n1 [Compound 96] | 0 to 25 | 0 to 25 | 0 to 25 | 0 to 25
37 | CCC(/C=N/Nc1nc(OCc2cccc(OC)c2)ncc1F)CC [Compound 97] | 0 to 25 | 51 to 75 | 0 to 25 | 0 to 25
38 | O=C(NCc1ccccc1F)Nc1nc(OCc2cccc(F)c2)ncc1F [Compound 98] | 0 to 25 | 0 to 25 | 0 to 25 | 0 to 25
39 | CCCCCCOc1ncc(F)c(NCO)n1 [Compound 99] | 0 to 25 | 76 to 100 | 0 to 25 | 51 to 75
40 | Nc1nc(SCc2ccc(F)cc2)ncc1F [Compound 100] | 0 to 25 | 0 to 25 | 0 to 25 | 0 to 25
41 | CC(C)(C)OC(=O)Nc1nc(OCc2ccc(F)cc2)ncc1F [Compound 101] | 51 to 75 | 51 to 75 | 0 to 25 | 0 to 25
42 | Cc1ccc(COc2ncc(F)c(N(N)c3ccccc3)n2)cc1 [Compound 102] | 0 to 25 | 0 to 25 | 0 to 25 | 26 to 50
43 | C[C@H](Oc1ncc(F)c(N)n1)c1ccc(Br)cc1 [Compound 103] | 76 to 100 | 76 to 100 | 51 to 75 | 76 to 100
